The values below come from patent publication US11639329B2, “Lipids for use in lipid nanoparticle formulations” (ACUITAS THERAPEUTICS, INC., priority 2017, dated 2023).

The subject of data set [1] is luciferase expression in the liver (FLuc mRNA). The data set can be described thus: Luciferase mRNA in vivo evaluation using lipid nanoparticle compositions. On the set-up: species or system mice (C57BL/6, CD-1). To be noted: LNP with FLuc mRNA, tail vein injection, liver 4 hours after administration; for Liver Luc @ 0.5 mg/kg (ng luc/g liver): 0.5 mg mRNA/kg; for Liver Luc (ng luc/g liver), *dosed at 0.3 mg/kg: dosed at 0.3 mg/kg (footnote *). On the procedure: A lipid of structure (I), DSPC, cholesterol and PEG-lipid were solubilized in ethanol at a molar ratio of 50:10:38.5:1.5 or 47.5:10:40.8:1.7. Lipid nanoparticles (LNP) were prepared at a total lipid to mRNA weight ratio of approximately 10:1 to 30:1. Briefly, the mRNA was diluted to 0.2 mg/mL in 10 to 50 mM citrate buffer, pH 4. Syringe pumps were used to mix the ethanolic lipid solution with the mRNA aqueous solution at a ratio of about 1:5 to 1:3 (vol/vol) with total flow rates above 15 mL/min. The ethanol was then removed and the external buffer replaced with PBS by dialysis. Finally, the lipid nanoparticles were filtered through a 0.2 μm pore sterile filter.
Studies were performed in 6-8 week old female C57BL/6 mice (Charles River) 8-10 week old CD-1 (Harlan) mice (Charles River) according to guidelines established by an institutional animal care committee (ACC) and the Canadian Council on Animal Care (CCAC). Varying doses of mRNA-lipid nanoparticle were systemically administered by tail vein injection and animals euthanized at a specific time point (e.g., 4 hours) post-administration. Liver and spleen were collected in pre-weighed tubes, weights determined, immediately snap frozen in liquid nitrogen and stored at −80° C. until processing for analysis.
For liver, approximately 50 mg was dissected for analyses in a 2 mL FastPrep tubes (MP Biomedicals, Solon OH). ¼″ ceramic sphere (MP Biomedicals) was added to each tube and 500 μL of Glo Lysis Buffer—GLB (Promega, Madison Wis.) equilibrated to room temperature was added to liver tissue. Liver tissues were homogenized with the FastPrep24 instrument (MP Biomedicals) at 2×6.0 m/s for 15 seconds. Homogenate was incubated at room temperature for 5 minutes prior to a 1:4 dilution in GLB and assessed using SteadyGlo Luciferase assay system (Promega). Specifically, 50 μL of diluted tissue homogenate was reacted with 50 μL of SteadyGlo substrate, shaken for 10 seconds followed by 5 minute incubation and then quantitated using a CentroXS^3 LB 960 luminometer (Berthold Technologies, Germany). The amount of protein assayed was determined by using the BCA protein assay kit (Pierce, Rockford, Ill.). Relative luminescence units (RLU) were then normalized to total μg protein assayed. To convert RLU to ng luciferase a standard curve was generated with QuantiLum Recombinant Luciferase (Promega).
The FLuc mRNA (L-6107or L-7602) from Trilink Biotechnologies will express a luciferase protein, originally isolated from the firefly, photinus pyralis. FLuc is commonly used in mammalian cell culture to measure both gene expression and cell viability. It emits bioluminescence in the presence of the substrate, luciferin. This capped and polyadenylated mRNA is fully substituted with 5-methylcytidine and pseudouridine.
Compounds of structure (I) were formulated using the following molar ratio: 47.5% cationic lipid/ 10% distearoylphosphatidylcholine (DSPC)/40.8% Cholesterol/1.7% PEG lipid (“PEG-DMA” 2-[2-(ω-methoxy(polyethyleneglycol2000)ethoxy]-N,N-ditetradecylacetamide). Relative activity was determined by measuring luciferase expression in the liver 4 hours following administration via tail vein injection as described in Example 1.
The cationic lipids shown in Table 2 have previously been tested with nucleic acids. For comparative purposes, these lipids were also used to formulate lipid nanoparticles containing the FLue mRNA (L-6107) using an in line mixing method, as described in Example 1 and in PCT/US10/22614, which is hereby incorporated by reference in its entirety. Lipid nanoparticles may be formulated using the following molar ratio: 50% Cationic lipid/10% distearoylphosphatidylcholine (DSPC)/38.5% Cholesterol/1.5% PEG lipid (“PEG-DMG”, i.e., 1-(monomethoxy-polyethyleneglycol)-2,3-dimyristoylglycerol, with an average PEG molecular weight of 2000). In alternate embodiments, cationic lipid, DSPC, cholesterol and PEG-lipid are formulated at a molar ratio of approximately 47.5:10:40.8:1.7. […]

The nature of data set [2]: Determination of pKa of formulated lipids (TNS fluorescence assay in lipid nanoparticles). The class given is physicochemical. To be noted: probe TNS (2-(p-toluidino)-6-napthalene sulfonic acid); lipid formulated in LNP (compound/DSPC/cholesterol/PEG-lipid); pH giving half-maximal TNS fluorescence. The text has this: As described elsewhere, the pKa of formulated lipids is correlated with the effectiveness of LNPs for delivery of nucleic acids (see Jayaraman et al, Angewandte Chemie, International Edition (2012), 51(34), 8529-8533; Semple et al, Nature Biotechnology 28, 172-176 (2010)). In some embodiments, the preferred range of pKa is ˜5 to ˜7. […] Lipid nanoparticles comprising compound of structure (I)/DSPC/cholesterol/PEG-lipid (50/10/38.5/1.5 or 47.5:10:40.8:1.7 mol %) in PBS at a concentration of 0.4 mM total lipid were prepared using the in-line process as described in Example 1. TNS was prepared as a 100 μM stock solution in distilled water. Vesicles were diluted to 24 μM lipid in 2 mL of buffered solutions containing 10 mM HEPES, 10 mM MES, 10 mM ammonium acetate, and 130 mM NaCl, where the pH ranged from 2.5 to 11. An aliquot of the TNS solution was added to give a final concentration of 1 μM and following vortex mixing fluorescence intensity was measured at room temperature in a SLM Aminco Series 2 Luminescence Spectrophotometer using excitation and emission wavelengths of 321 nm and 445 nm. A sigmoidal best fit analysis was applied to the fluorescence data and the pKa was measured as the pH giving rise to half-maximal fluorescence intensity.

On to `CCCCCCCCC(CCCCCC)COC(=O)CCCCCN(CCCCCC(=O)OCC(CCCCCC)CCCCCCCC)CCN(C)CCCCCCO` (centres unmarked) [Compound 7], for which the “Liver Luc @ 0.5 mg/kg (ng luc/g liver)” value in data set [1] worked out at 16 ± 14 ng luc/g liver. Besides, the pKa (in general, the negative logarithm of the acid dissociation constant) in data set [2] was 6.69.

Take `CCCCCCCCC(CCCCCC)COC(=O)CCCCCN(CCCCCC(=O)OCC(CCCCCC)CCCCCCCC)CCN(C)CCO` (centres unmarked) [Compound 4]: the “Liver Luc (ng luc/g liver), *dosed at 0.3 mg/kg” value in data set [1] is given as 50 ± 14* ng luc/g liver. Also, the pKa in data set [2] turned out to be 6.91. The molecule `CCCCCCCCC(CCCCCC)COC(=O)CCCCCCCN(CCCCCCCC(=O)OCC(CCCCCC)CCCCCCCC)CCN(CCO)CCCO` (centres unmarked) [Compound 3] registered a pKa in data set [2] of 7.18. With `CCCCCCCCC(CCCCCC)COC(=O)CCCCCCCN(CCCCCCCC(=O)OCC(CCCCCC)CCCCCCCC)CCN(CC)CCCO` (centres unmarked) [Compound 6], the pKa in data set [2] came to 6.82.

As to `CCCCCCCCCN(CCO)CCN(CCCCCC(=O)OCC(CCCCCC)CCCCCCCC)CCCCCC(=O)OCC(CCCCCC)CCCCCCCC` (centres unmarked) [Compound 1], in data set [1], the “Liver Luc (ng luc/g liver), *dosed at 0.3 mg/kg” value is given as 330 ± 70* ng luc/g liver. The same molecule came in with a pKa in data set [2] of 5.83. Taken in the same sequence, the figures for `CCCCCCCCCN(CCCO)CCN(CCCCCC(=O)OCC(CCCCCC)CCCCCCCC)CCCCCC(=O)OCC(CCCCCC)CCCCCCCC` (centres unmarked) [Compound 2] were 553 ± 291* ng luc/g liver and 5.76. With `CCCCCCC(CCCC)C(=O)OCCCCCCCCCN(CCCCCCCCCOC(=O)C(CCCC)CCCCCC)CCN(C)CCCCCCCCCO` (centres unmarked) [Compound 8], the “Liver Luc @ 0.5 mg/kg (ng luc/g liver)” value in data set [1] is 54 ± 10 ng luc/g liver. This molecule came in with a pKa in data set [2] of 6.08.

On to `CCCCCCCCC(CCCCCC)COC(=O)CCCCCN(CCCCCC(=O)OCC(CCCCCC)CCCCCCCC)CCN(C)CCCCCCCCCO` (centres unmarked) [Compound 5], for which the “Liver Luc @ 0.5 mg/kg (ng luc/g liver)” value in data set [1] turned out to be 1597 ± 456 ng luc/g liver. The molecule further displayed a pKa in data set [2] of 6.17.
